Laboratory results as given in patent US12280018B2, “Antiseptic compositions” (RHT LIMITED, priority 2020, dated 2025).

Columns and labels:
[1] = system: PolySeed® BOD Seed Inoculum (blend of broad spectrum bacteria); test: Durability test (bacteria spiked regularly on treated agar plate, swab viable count); assay type: cell-based; settings: bacteria solution spiked every 60 minutes
Experimental: To evaluate the durability of bacteria inhibition of the exemplary compositions, durability test by regularly spiking a fixed amount of bacteria into the sample is performed and the procedures are incorporated herein by reference.
• Group A: Agar plate with 0.5 mL distilled water; • Group B: Agar plate with 0.5 mL 75% isopropyl alcohol (IPA); • Group C: Agar plate with 0.5 g of tested exemplary composition.
Bacteria strain used: PolySeed® BOD Seed Inoculum Capsules (1 caspsule dissolved into 500 mL Distilled Water) (Interlab), which contains a blend of broad spectrum bacteria designed specifically as a seed inoculum for the Biochemical Oxygen Demand (BOD 5) test as conducted in accordance to Standard Methods of the Examination of Water and Wastewater. PolySeed® is an EPA approved BOD 5 seed inoculum that has been used to seed both municipal and industrial wastes for almost 20 years.
Agar: Trypticase Soy Agar (TSA)
Incubation condition: 48 hours at 30±1° C.
The above three sample group agar plates are used as the sample matrices of different initial situation for spiking 0.5 ml bacteria solution for every 60 minutes, i.e.: there was an on-going process of spiking bacteria at time 0, 60, 120, 180, 240, 300 minutes;
A swab testing is carried out every 30 minutes from matrix samples of each group to test for the viable count of bacteria at the time interval.
• AM: 0.5 ml bacteria solution is added at T0-10 min; • Sample A1: To swab from AM at T0; Sample A2: To swab from AM at T1; • AM: 0.5 ml bacteria solution is added at T2-10 min; • Sample A3: To swab from AM at T2; Sample A4: To swab from AM at T3; • AM: 0.5 ml bacteria solution is added at T4-10 min; and so forth. Table 2 summarized the testing schedule for durability test.

[2] = system: PolySeed® BOD Seed Inoculum; test: Volatility test (duration of bacteria inhibition on treated agar plate); assay type: cell-based
Experimental: To study the duration on ability of bacteria inhibition of an exemplary composition, a volatility test is performed.
• Group A: Agar plate with 0.5 mL distilled water; • Group B: Agar plate with 0.5 mL 75% isopropyl alcohol (IPA); • Group C: Agar plate with 0.5 g of tested exemplary composition. Bacteria strain used: PolySeed® BOD Seed Inoculum Capsules (1 capsule dissolved into 500 mL Distilled Water) (Interlab) Agar: Trypticase Soy Agar (TSA) Incubation condition: 48 hours at 30±1° C. Testing Procedure 0.5 mL bacteria solution is add into the agar plate groups A, B and C at the time interval of Tx. as defined in Table 1.3.
After T10, bacteria solution is spiked to all the agar plates except agar blank.
Swab test is carried out to test for the viable count of bacteria at the time interval Tx.

CC(C)O [75% IPA, isopropyl alcohol]
CFU/plate ([1]; T0 (0 min)): 8 CFU/plate
CFU/plate ([1]; T1 (30 min)): 28 CFU/plate
CFU/plate ([1]; T2 (60 min)): 53 CFU/plate
CFU/plate ([1]; T3 (90 min)): 89 CFU/plate
CFU/plate ([1]; T4 (120 min)): 254 CFU/plate
CFU/plate ([1]; T5 (150 min)): 346 CFU/plate
CFU/plate ([1]; T6 (180 min)): Uncountable (the bacterial colonies are too numerous to be counted in the agar plate, e.g., more than 335 colonies per plate)
CFU/plate ([1]; T7 (210 min)): Uncountable (the bacterial colonies are too numerous to be counted in the agar plate, e.g., more than 335 colonies per plate)
CFU/plate ([1]; T8 (240 min)): Uncountable (the bacterial colonies are too numerous to be counted in the agar plate, e.g., more than 335 colonies per plate)
CFU/plate ([1]; T9 (270 min)): Uncountable (the bacterial colonies are too numerous to be counted in the agar plate, e.g., more than 335 colonies per plate)
CFU/plate ([1]; T10 (300 min)): Uncountable (the bacterial colonies are too numerous to be counted in the agar plate, e.g., more than 335 colonies per plate)
CFU/plate ([2]; T0 (0 min)): 54 CFU/plate
CFU/plate ([2]; T1 (30 min)): 62 CFU/plate
CFU/plate ([2]; T2 (60 min)): 50 CFU/plate
CFU/plate ([2]; T3 (90 min)): 45 CFU/plate
CFU/plate ([2]; T4 (120 min)): 49 CFU/plate
CFU/plate ([2]; T5 (150 min)): 55 CFU/plate
CFU/plate ([2]; T6 (180 min)): 43 CFU/plate
CFU/plate ([2]; T7 (210 min)): 37 CFU/plate
CFU/plate ([2]; T8 (240 min)): 44 CFU/plate
CFU/plate ([2]; T9 (270 min)): 49 CFU/plate
CFU/plate ([2]; T10 (300 min)): 0 CFU/plate
